Test results taken from the METLIN SMRT retention time set (Domingo-Almenara et al. 2019).

Experiment: gradient 5% acetonitrile 3 min, to 50% in 2 min, to 85% in 15 min, held 3 min, 100 µL/min
Conditions: column: Zorbax Extend-C18 2.1 x 50 mm; eluents: water / acetonitrile, 0.1% formic acid
Summary of the method: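 The system's dead and dwell volumes were 40 μL and 900 μL, with a Zorbax Extend-C18 column (2.1 × 50 mm, 1.8 μm) run at 100 μL/min in water and acetonitrile containing 0.1% formic acid each. Pure standards were analyzed in mixtures of ~100 molecules by HPLC–quadrupole time-of-flight mass spectrometry in positive and negative ionization mode. Retention time was assigned from computationally picked, manually inspected adduct peaks.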

| Structure (SMILES) | RP-LC retention time |
| --- | --- |
| CCCN1C(=O)COc2ccc(-c3noc(-c4ccc(OC)cc4)n3)cc21 | 1140 s |
| COc1ccc(NC(=O)C2CC(=O)N(c3ccc4c(c3)CCN4C(=O)C3CC3)C2)c(C)c1 (centres undefined) | 740 s |
| Fc1cc(CN2CCC(Cc3nnc(C4CCOCC4)o3)C2)ccc1Cl (centres undefined) | 603 s |
| O=C(CCC(=O)N1CCN(c2ccc(=O)n(-c3ccc(Cl)cc3)n2)CC1)N1CCOCC1 | 659 s |
| COc1ccc(Nc2c(C(=O)N3CCCCCC3)cnc3nc(C)ccc23)cc1 | 638 s |
| Cn1c(=O)c(=O)n(C)c2cc(N3CCCCC3)c(NC(=O)CN3CCOCC3)cc21 | 608 s |
| Cc1c2c(nn1-c1ccc(SCc3ccc(F)cc3)nn1)CCC2 | 1280 s |
| O=C(CCCS(=O)(=O)Cc1ccccc1)Nc1ccc2c(c1)OCCO2 | 700 s |
| O=C(CCC(=O)N1CCOc2ccccc21)Nc1c(F)c(F)c(F)c(F)c1F | 912 s |
| O=C(NCc1ccc(F)cc1)C1CCN(c2nnc3c(Cl)cccn23)CC1 | 645 s |
| O=C(CCC1CCCC1)Nc1cccc(-c2nnc3n2CCCC3)c1 | 762 s |
| O=C(Cn1nc(N2CCOCC2)c2ccccc2c1=O)Nc1ccccc1C(F)(F)F | 804 s |
| CCc1nc2cc(N3CCC(C(=O)NCCN4CCCC4)CC3)cnc2nc1CC | 600 s |
| O=C(NCc1ccc2c(c1)OCO2)c1ccc(OCC(=O)C2CC2)cc1 | 736 s |
| Cc1ccc(C(=O)Nc2nnc(SCc3nnc(-c4ccccc4C)o3)s2)cc1 | 1040 s |
| Cc1ccc(-c2nc(-c3ccc4nnn(C)c4c3)no2)cc1C | 1170 s |
| Cc1nc(C)c(C(=O)Nc2nc(-c3ccccc3)cs2)s1 | 886 s |
| CCC(C)NC(=O)CN1C(=O)C2CCCCN2c2ccc(S(=O)(=O)N3CCCC3)cc21 (centres undefined) | 850 s |
| O=C(Nc1c(-c2ccccc2)nc2ccccn12)c1ccc([N+](=O)[O-])cc1 | 654 s |
| CN(C)CC(=O)N1CCC(Oc2nccnc2N2CCOCC2)C1 (centres undefined) | 561 s |
| CCOc1ccccc1N1CCN(c2cc(C(=O)O)c3cc(NC(=O)CC)ccc3n2)CC1 | 634 s |
| CCOC(=O)c1c(C)[nH]c(C(=O)N2CCC(C(C)C(=O)NCc3ccc(F)cc3Cl)CC2)c1C (centres undefined) | 863 s |
| CCCCN1C(=O)C(NC(=O)c2ccccc2OC)(C(F)(F)F)C(C(C)=O)=C1C (centres undefined) | 976 s |

| Structure (SMILES) | RP-LC retention time |
| --- | --- |
| O=C(NCCC1=CCCCC1)c1nc(Nc2ccccc2)c2ccccc2n1 | 960 s |
| CCc1ccccc1NC(=O)CSc1nnc2ccc(C(=O)Nc3cccc(F)c3)cn12 | 776 s |
| COc1ccccc1CNC1CCN(c2ccc(C(=O)NC3CC3)cn2)C1 (centres undefined) | 552 s |
| Cc1cc(NC(=O)c2cc3c(=O)n4cccc(C)c4nc3s2)no1 | 792 s |
| O=C(CSc1ccc2nnc(-c3cccs3)n2n1)NCc1ccc(F)cc1 | 655 s |
| COc1ccc(NC(=O)c2sc(-c3cn(C(C)C)c4ncccc34)nc2C)c(OC)c1 | 1030 s |
| COc1cc(NC(=O)c2cn(-c3cc(N4CCCC4)ncn3)cn2)cc(OC)c1 | 860 s |
| O=C(c1ccc2ccccc2n1)N1CCN(c2cc(-c3cccnc3)[nH]n2)CC1 | 602 s |
| Cc1cccc(-c2c3c(=O)n(C)c(=O)n(C)c3c3n2CCOC3c2c(C)n(C)c(=O)n(C)c2=O)c1 (centres undefined) | 746 s |
| Cc1sc(-c2cc(C(F)(F)F)on2)cc1S(=O)(=O)N1CCc2ccccc21 | 1270 s |
| O=C(Cn1c(=O)cc(-c2nc(C3CC3)no2)c2ccccc21)Nc1cccc(F)c1 | 952 s |
| COc1ccc(-c2nc3cc(C)ccn3c2NC(=O)CC(C)C)cc1 | 628 s |
| CCc1cc(=O)n(CC(=O)Nc2c(C)cccc2C)c(N2CCOCC2)n1 | 736 s |
| CSc1nnc(-c2nn(C)c3c2CN(C(=O)c2ccccc2)CC3)n1C | 680 s |
| COc1ccc(Cl)cc1NC(=O)Cn1c2c(c(=O)n(C3CCCCC3)c1=O)CCC2 | 997 s |
| Cc1oc2ccn(Cc3ccccc3F)c(=O)c2c1C(=O)NCc1cccs1 | 1030 s |
| O=C(NCCc1csc(-c2cccc(F)c2)n1)c1ccc2c(c1)OCO2 | 847 s |
| O=C(CC1CCN(C(=O)c2ccc3oc(C4CC4)nc3c2)CC1)NCc1ccco1 | 693 s |
| CC(=O)N1CCc2cc(N3CC(C(=O)Nc4cc(F)cc(F)c4)CC3=O)ccc21 (centres undefined) | 772 s |
| O=C(CCC1CCCN(S(=O)(=O)c2ccccc2F)C1)NC1CCCCC1 (centres undefined) | 952 s |
| COc1ccc(OCC(=O)N(C)CCc2noc(C3CCCCC3)n2)cc1 | 912 s |
| Cc1ccc(N2CC(c3noc(-c4ccccn4)n3)CC2=O)cc1 (centres undefined) | 797 s |
| CCc1nc2cc(N3CCC(C(=O)NC(C)CC)CC3)cnc2nc1CC (centres undefined) | 758 s |

| Structure (SMILES) | RP-LC retention time |
| --- | --- |
| COc1ccc(Cl)cc1C(=O)N1CCC2(CC1)N=C(c1ccc(Br)cc1)NO2 | 959 s |
| Cc1ccc(C)c(CN2C[C@@H]3C(=O)N(C)C(=O)[C@@H]3C2)c1 | 611 s |
| CCN1c2ccc(Cl)cc2C(=O)NC12CCN(C(=O)NCc1ccccc1)CC2 | 837 s |
| CCOC(=O)C1=C(CN2CCC(C(=O)OCC)CC2)NC(=O)NC1c1ccc(C)cc1 (centres undefined) | 665 s |
| COc1cc(-c2noc(Cn3cnc4c(cnn4-c4ccc(F)cc4)c3=O)n2)cc(OC)c1OC | 938 s |
| CC(C)n1c(N2CCN(C(=O)Cc3cccs3)CC2)cc(=O)n(C(C)C)c1=O | 829 s |
| O=c1oc2cc(O)c(O)cc2c2c1CCC2 | 641 s |
| O=C(NC1CC1)c1cn(CCC2CCCCN2C(=O)C2CC2)nn1 (centres undefined) | 636 s |
| COc1cc(-c2noc(Cn3nc4ccc(-c5ccccc5)nn4c3=O)n2)cc(OC)c1OC | 862 s |
| Cc1ccc(C(C)NC(=O)c2cn3c(n2)CCCC3)c(C)c1 (centres undefined) | 642 s |
| COCC(C)(O)CNC(=O)C(=O)NCc1ccc(C)cc1 (centres undefined) | 674 s |
| Clc1cc(Br)ccc1-c1ccc(CNCC2CCNCC2)o1 | 605 s |
| NC(=O)c1cc[nH]c1C1CCCN(Cc2ccc(Br)o2)C1 (centres undefined) | 594 s |
| COC(=O)c1nn(-c2ccc(C)cc2)c2c(=O)n(C)cnc12 | 707 s |
| O=C(c1cc2ccccc2[nH]1)N1CC2CN(S(=O)(=O)c3cccc(F)c3)CC(C1)O2 | 862 s |
| COc1ccc(NC(=O)Cn2c(=O)n(-c3ccccc3)c(=O)c3c2cc(C)n3C)c(OC)c1 | 791 s |
| Cc1ccc(S(=O)(=O)N2C[C@@H](F)C[C@H]2C(=O)N2CCCCC2)cc1F | 836 s |
| O=[N+]([O-])c1cccc(C2SCCN2S(=O)(=O)c2ccc(Br)cc2)c1 (centres undefined) | 1020 s |
| CC(C)CCNC(=O)c1csc(-c2ccc(N3CCCC3)nc2)n1 | 714 s |
| CN1CCC(CCNC(=O)C2CCc3sc(C(=O)N4CCCC4)cc3C2)CC1 (centres undefined) | 579 s |
| CCCCN(C)C(=O)c1cn2cc(Cl)ccc2n1 | 736 s |
| Cc1ccc(C(=O)NCc2nc(-c3ccc(-c4csc(C5CC5)n4)cc3)no2)cc1 | 1110 s |
| COCc1nc(-c2ccc(OC3CN(C(=O)NC(C)C)C3)cc2)no1 | 773 s |

| Structure (SMILES) | RP-LC retention time |
| --- | --- |
| Cc1cccc(C)c1Nc1c(-c2ccccc2)nc2cnccn12 | 865 s |
| COc1ccc(C(=O)Nc2cc(-c3cccnc3)no2)c(C)c1 | 760 s |
| Cc1noc(C)c1S(=O)(=O)N1CCC(Cc2nc(-c3cccnc3)n[nH]2)C1 (centres undefined) | 624 s |
| Cc1ccc(NC(=O)c2ccc(CN3CCN(C)CC3)cc2)cc1Nc1nc(-c2cccnc2)cs1 | 618 s |
| Cc1ccccc1CNC(=O)C1(C)CCCN(C(=O)NCc2ccco2)C1 (centres undefined) | 809 s |
| Cc1ccc(S(=O)(=O)Nc2ccc(-c3cn4cccc(C)c4n3)cc2)cc1C | 625 s |
| Cc1nc2c(sc3nc(-c4ccccc4)ccc32)c(=O)n1CC(=O)Nc1ccc(F)c(Cl)c1 | 1140 s |
| COCCN1C(=O)CCc2cc(NS(=O)(=O)c3ccc(Cl)s3)ccc21 | 793 s |
| Cc1ccc(-c2cc(C(=O)N3CCN(C4CCN(C)CC4)CC3)n(C)c2)cc1 | 590 s |
| Cc1nnc(CNC(=O)C(=O)Nc2ccc3c(c2)OCCO3)o1 | 615 s |
| CCC(=O)N1CCN(c2nc3c(s2)CC(C(=O)NC(CC)CC)CC3)CC1 (centres undefined) | 546 s |
| Cc1cccc(C2=NC3(CCN(C(=O)c4ccc5c(c4)OCO5)CC3)NC2=O)c1 | 792 s |
| Cc1cc(C)cc(NC(=O)Cn2c(=O)n(-c3ccc(F)cc3)c(=O)c3c2cc(C)n3C)c1 | 879 s |
| CCN1C(=O)c2cccnc2Sc2cc(NC(=O)c3ccccc3F)ccc21 | 834 s |
| Cc1ccc(C)c(-c2nc(-c3cccc(-c4ccnn4C)c3)no2)c1 | 1110 s |
| Cc1nccn1Cc1nc(-c2ccc(F)c(Cl)c2)no1 | 654 s |
| OC(CN1CCN(c2ccc(F)cc2)CC1)c1ccc2c(c1)OCO2 (centres undefined) | 635 s |
| Cc1noc(-c2nn(C)c3c2CN(C(=O)COc2ccc(F)cc2)CC3)n1 | 740 s |
| Cc1ccc(-c2coc(-c3cccc(NS(=O)(=O)c4ccc(Cl)s4)c3)n2)cc1 | 1310 s |
| Cc1ccnc(NC(=O)C2CCN(S(=O)(=O)c3c(C)nn(CC(=O)N4CCCC4)c3C)CC2)c1 | 619 s |
